Reference: patent US20040063662A1, “Selenophene anti-tumor agents” (priority 1996, published 2004)

Tests used:
CCRF-CEM = assay: NCI human tumor cell panel: CCRF-CEM (Leukemia); format: cell-based
HL-60(TB) = assay: NCI human tumor cell panel: HL-60(TB) (Leukemia); format: cell-based
K-562 = assay: NCI human tumor cell panel: K-562 (Leukemia); format: cell-based
A549/ATCC = assay: NCI human tumor cell panel: A549/ATCC (Non-Small Cell Lung Cancer); format: cell-based
NCI-H226 = assay: NCI human tumor cell panel: NCI-H226 (Non-Small Cell Lung Cancer); format: cell-based
NCI-H23 = assay: NCI human tumor cell panel: NCI-H23 (Non-Small Cell Lung Cancer); format: cell-based
COLO 205 = assay: NCI human tumor cell panel: COLO 205 (Colon Cancer); format: cell-based; details: COLO 205, read-out: Log10 GI50 (converted)
SF-268 = assay: NCI human tumor cell panel: SF-268 (CNS Cancer); format: cell-based
SNB-19 = assay: NCI human tumor cell panel: SNB-19 (CNS Cancer); format: cell-based
SK-MEL-2 = assay: NCI human tumor cell panel: SK-MEL-2 (Melanoma); format: cell-based
SK-MEL-28 = assay: NCI human tumor cell panel: SK-MEL-28 (Melanoma); format: cell-based
SK-MEL-5 = assay: NCI human tumor cell panel: SK-MEL-5 (Melanoma); format: cell-based
IGROV1 = assay: NCI human tumor cell panel: IGROV1 (Ovarian Cancer); format: cell-based
OVCAR-5 = assay: NCI human tumor cell panel: OVCAR-5 (Ovarian Cancer); format: cell-based
SK-OV-3 = assay: NCI human tumor cell panel: SK-OV-3 (Ovarian Cancer); format: cell-based
786-0 = assay: NCI human tumor cell panel: 786-0 (Renal Cancer); format: cell-based
A498 = assay: NCI human tumor cell panel: A498 (Renal Cancer); format: cell-based
CAKI-1 = assay: NCI human tumor cell panel: CAKI-1 (Renal Cancer); format: cell-based
RXF-393 = assay: NCI human tumor cell panel: RXF-393 (Renal Cancer); format: cell-based
SN12C = assay: NCI human tumor cell panel: SN12C (Renal Cancer); format: cell-based
TK-10 = assay: NCI human tumor cell panel: TK-10 (Renal Cancer); format: cell-based
PC-3 = assay: NCI human tumor cell panel: PC-3 (Prostate Cancer); format: cell-based
MCF7/ADR-RES = assay: NCI human tumor cell panel: MCF7/ADR-RES (Breast Cancer); format: cell-based
MDA-MB-231/ATCC = assay: NCI human tumor cell panel: MDA-MB-231/ATCC (Breast Cancer); format: cell-based; details: Homo sapiens, MDA-MB-231, MDA-MB-231/ATCC
HS 578T = assay: NCI human tumor cell panel: HS 578T (Breast Cancer); format: cell-based
BT-549 = assay: NCI human tumor cell panel: BT-549 (Breast Cancer); format: cell-based
T-47D = assay: NCI human tumor cell panel: T-47D (Breast Cancer); format: cell-based; details: T47D
NCI-H522 = assay: NCI human tumor cell panel: NCI-H522 (Non-Small Cell Lung Cancer)
[1] = test system: panel of sixty different human tumor cell lines; assay: NCI human tumor cell panel: whole panel (mean graph summary)
[2] = read-out: Log10 GI50 (converted)
[3] = read-out: Log10 TGI (converted)

OCc1ccc(-c2ccc(-c3ccc[se]3)s2)[se]1 [compound 676631]
GI50 (CCRF-CEM; [2]): > 100 µM
IC (TGI) (CCRF-CEM; [3]): > 100 µM
GI50 (HL-60(TB); [2]): > 100 µM
IC (TGI) (HL-60(TB); read-out: Log10 TGI): > 100 µM
GI50 (K-562; K562, K-562, read-out: Log10 GI50 (converted)): 0.102 µM
IC (TGI) (K-562; K562, K-562, read-out: Log10 TGI (converted)): > 100 µM
GI50 (A549/ATCC; [2]): 58.9 µM
IC (TGI) (A549/ATCC; [3]): > 100 µM
GI50 (NCI-H226; NCI-H226, read-out: Log10 GI50 (converted)): 0.0501 µM
IC (TGI) (NCI-H226; NCI-H226, read-out: Log10 TGI (converted)): 0.182 µM
GI50 (NCI-H23; NCI-H23, read-out: Log10 GI50 (converted)): 16.6 µM
IC (TGI) (NCI-H23; NCI-H23, read-out: Log10 TGI (converted)): 38.9 µM
GI50 (COLO 205): 0.288 µM
GI50 (SF-268; SF-268, read-out: Log10 GI50 (converted)): 23.4 µM
IC (TGI) (SF-268; SF-268, read-out: Log10 TGI (converted)): 64.6 µM
GI50 (SNB-19; SNB-19, read-out: Log10 GI50 (converted)): 17.4 µM
IC (TGI) (SNB-19; SNB-19, read-out: Log10 TGI (converted)): > 100 µM
GI50 (SK-MEL-2; SK-MEL-2, read-out: Log10 GI50 (converted)): > 100 µM
IC (TGI) (SK-MEL-2; SK-MEL-2, read-out: Log10 TGI (converted)): > 100 µM
GI50 (SK-MEL-28; SK-MEL-28, read-out: Log10 GI50 (converted)): 66.1 µM
IC (TGI) (SK-MEL-28; SK-MEL-28, read-out: Log10 TGI (converted)): > 100 µM
GI50 (SK-MEL-5; SK-MEL-5, read-out: Log10 GI50 (converted)): > 100 µM
IC (TGI) (SK-MEL-5; SK-MEL-5, read-out: Log10 TGI (converted)): > 100 µM
GI50 (IGROV1; IGROV-1, IGROV1, read-out: Log10 GI50 (converted)): 0.0813 µM
IC (TGI) (IGROV1; IGROV-1, IGROV1, read-out: Log10 TGI (converted)): 0.603 µM
GI50 (OVCAR-5; OVCAR-5, read-out: Log10 GI50 (converted)): 0.0316 µM
IC (TGI) (OVCAR-5; OVCAR-5, read-out: Log10 TGI (converted)): 0.209 µM
GI50 (SK-OV-3; SK-OV-3, read-out: Log10 GI50 (converted)): 45.7 µM
IC (TGI) (SK-OV-3; SK-OV-3, read-out: Log10 TGI (converted)): > 100 µM
GI50 (786-0; 786-0, read-out: Log10 GI50 (converted)): > 100 µM
IC (TGI) (786-0; 786-0, read-out: Log10 TGI (converted)): > 100 µM
GI50 (A498; A498, read-out: Log10 GI50 (converted)): 0.0275 µM
IC (TGI) (A498; A498, read-out: Log10 TGI (converted)): 0.0832 µM
GI50 (CAKI-1; CAKI-1, read-out: Log10 GI50 (converted)): 0.0309 µM
IC (TGI) (CAKI-1; CAKI-1, read-out: Log10 TGI (converted)): 0.191 µM
GI50 (RXF-393; RXF-393, read-out: Log10 GI50 (converted)): 72.4 µM
IC (TGI) (RXF-393; RXF-393, read-out: Log10 TGI (converted)): > 100 µM
GI50 (SN12C; [2]): > 100 µM
IC (TGI) (SN12C; [3]): > 100 µM
GI50 (TK-10; TK-10, read-out: Log10 GI50 (converted)): 0.0501 µM
IC (TGI) (TK-10; TK-10, read-out: Log10 TGI (converted)): 0.372 µM
GI50 (PC-3; PC-3, read-out: Log10 GI50 (converted)): 52.5 µM
IC (TGI) (PC-3; PC-3, read-out: Log10 TGI (converted)): > 100 µM
GI50 (MCF7/ADR-RES; [2]): 10 µM
IC (TGI) (MCF7/ADR-RES; [3]): 31.6 µM
GI50 (MDA-MB-231/ATCC; [2]): 19.1 µM
IC (TGI) (MDA-MB-231/ATCC; [3]): 87.1 µM
GI50 (HS 578T; [2]): > 100 µM
IC (TGI) (HS 578T; [3]): > 100 µM
GI50 (BT-549; BT-549, read-out: Log10 GI50 (converted)): 17 µM
IC (TGI) (BT-549; BT-549, read-out: Log10 TGI (converted)): 38 µM
GI50 (T-47D; [2]): 0.676 µM
IC (TGI) (T-47D; [3]): > 100 µM
GI50 (NCI-H522; NCI-H522, read-out: Log10 GI50 (converted)): 5.25 µM
IC (TGI) (NCI-H522; NCI-H522, read-out: Log10 TGI): 21.4 µM
GI50 ([1]; Homo sapiens, read-out: Log10 GI50, MG_MID, mean over the panel (converted)): 6.61 µM
Log10 LC50, MG_MID ([1]; mean over the panel): −4.15
Log10 TGI, MG_MID ([1]; mean over the panel): −4.47
Log10 TGI, Delta ([1]; whole panel): 2.61
Log10 TGI, Range ([1]; whole panel): 3.08
